Test: Dissolution temperature of coupler in tricresyl phosphate and ethyl acetate
Assay type: physicochemical
Settings: 1 g coupler, tricresyl phosphate of equal weight and ethyl acetate of three times the weight; temperature at which the coupler was completely dissolved
Description: Structures of comparative couplers a to e are respectively shown below. [drawing 115] [drawing 116] [drawing 117] [drawing 118] [drawing 119]

SMILES | Dissolution Temperature [°C]
CCC(C)(C)c1ccc(OCCCCNC(=O)c2nn3c(-c4cc(Cl)cc(Cl)c4)n[nH]c3c2Cl)c(C(C)(C)CC)c1 [Coupler b] | 60
CCC(C)(C)c1ccc(OCCCCNC(=O)C(NC(=O)c2nn3c(-c4ccc(Cl)c(Cl)c4)n[nH]c3c2Cl)C(C)C)c(C(C)(C)CC)c1 (centres unmarked) [Coupler d] | 60
